Measurements: US11566057B2, “Long-acting co-agonists of the glucagon and GLP-1 receptors” (Merck Sharp & Dohme Corp., priority 2017, dated 2023)
pEC50: −log10 of the molar value. Like-named read-outs stand apart in the source and are kept apart here. Numbered stars: 1 amine (or outer) side, 2 acyl side, 3 side chain; on linkers, the order of the positions; unused ones are H or OH. Square brackets hold non-standard residues; d marks the D form. Side chains are listed from the residue outwards. Peptide text beside a SMILES is read from it. * marks the point of attachment. C20 diacid = O=C(O)CCCCCCCCCCCCCCCCCCC(=O)*; Phe(4-CH2NH2) = NCc1ccc(C[C@H](N)C(=O)O)cc1; C18 diacid = O=C(O)CCCCCCCCCCCCCCCCC(=O)*; C16 diacid = O=C(O)CCCCCCCCCCCCCCC(=O)*; γGlu = O=C(O)[C@H](CCC(=O)[*:2])N[*:1]; Met(O2) = CS(=O)(=O)CC[C@H](N)C(=O)O; αMeD = C[C@](N)(CC(=O)O)C(=O)O; AEEA = NCCOCCOCC(=O)O; Aib = CC(C)(N)C(=O)O

How the values were obtained:
human GLP1R = target: T1, human GLP1R (Homo sapiens, UniProt P43220); test: cAMP activity assay at the GLP-1 receptor (GLP1R); assay type: cell-based; details: summary statement: EC50 at each of the glucagon and GLP-1 receptors; read-out: EC50 at the GLP-1 receptor
T1 construct: expressed in transfected cells; growth medium holds Blasticidin and Hygromycin
Summary of the method: (§1)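 Peptides serially diluted from DMSO (10 points) and added to frozen-stock cells bearing human GLP1R (10,000 cells/well) or GCGR (30,000 cells/well), 1 h at RT, dark. EC50 by four-parameter logistic fit of HitHunter cAMPXS luminescence, read following overnight RT incubation.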

human GCGR = target: T2, human GCGR (Homo sapiens, UniProt P47871); test: cAMP activity assay at the Glucagon receptor (GCGR); assay type: cell-based; details: for hGCGR/hGLP1R (hTone): ratio of GCGR EC50 to GLP1R EC50
T2 construct: expressed in transfected cells; growth medium holds Blasticidin and Hygromycin
Summary of the method: as §1

[1] = summary statement: EC50 at each of the glucagon and GLP-1 receptors, read-out: EC50 at the glucagon receptor

T1 sequence (P43220 24-463): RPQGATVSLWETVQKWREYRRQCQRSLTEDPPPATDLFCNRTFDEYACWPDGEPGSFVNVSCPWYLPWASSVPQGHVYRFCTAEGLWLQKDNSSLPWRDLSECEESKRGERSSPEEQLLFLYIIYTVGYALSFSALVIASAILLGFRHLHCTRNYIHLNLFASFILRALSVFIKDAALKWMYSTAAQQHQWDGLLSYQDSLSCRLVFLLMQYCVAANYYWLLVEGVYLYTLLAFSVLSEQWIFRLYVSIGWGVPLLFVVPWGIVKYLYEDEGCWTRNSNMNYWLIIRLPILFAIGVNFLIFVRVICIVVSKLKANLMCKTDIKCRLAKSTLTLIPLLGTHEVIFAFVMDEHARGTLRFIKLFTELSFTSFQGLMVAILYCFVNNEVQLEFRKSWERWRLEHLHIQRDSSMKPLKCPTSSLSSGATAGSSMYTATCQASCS
T2 sequence (P47871 26-477): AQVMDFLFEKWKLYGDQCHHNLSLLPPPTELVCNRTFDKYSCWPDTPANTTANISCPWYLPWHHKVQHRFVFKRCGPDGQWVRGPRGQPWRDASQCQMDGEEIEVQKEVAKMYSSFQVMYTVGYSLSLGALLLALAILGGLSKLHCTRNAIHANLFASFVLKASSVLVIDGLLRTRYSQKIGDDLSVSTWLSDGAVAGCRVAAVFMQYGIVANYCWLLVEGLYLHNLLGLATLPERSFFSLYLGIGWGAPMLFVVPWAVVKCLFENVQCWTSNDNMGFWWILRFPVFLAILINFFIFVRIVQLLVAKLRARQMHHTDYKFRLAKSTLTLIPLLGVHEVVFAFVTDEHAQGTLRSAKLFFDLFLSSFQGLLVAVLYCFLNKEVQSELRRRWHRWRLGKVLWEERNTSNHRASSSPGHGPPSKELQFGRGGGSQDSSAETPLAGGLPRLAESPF

pEC50 (human GLP1R) | hGCGR/hGLP1R (hTone) (human GCGR) | pEC50 (human GCGR; [1]) | pEC50 (human GCGR; cells expressing human GCGR, cAMP production, buffer with or without 20% human serum (not stated which), read-out: GCGR EC50 human) | SMILES
> 8.30 | 0.3 | > 8.30 | 9.60 | CC(C)C[C@H](NC(=O)[C@H](Cc1ccc(O)cc1)NC(=O)[C@H](CCCCN)NC(=O)[C@H](CO)NC(=O)[C@H](Cc1ccc(O)cc1)NC(=O)[C@H](CC(=O)O)NC(=O)[C@H](CO)NC(=O)[C@@H](NC(=O)[C@H](Cc1ccccc1)NC(=O)[C@@H](NC(=O)CNC(=O)[C@H](CCC(N)=O)NC(=O)C(C)(C)NC(=O)[C@@H](N)Cc1c[nH]cn1)[C@@H](C)O)[C@@H](C)O)C(=O)N[C@@H](CC(=O)O)C(=O)N[C@@H](C)C(=O)N[C@@H](CCCNC(=N)N)C(=O)N[C@@H](C)C(=O)N[C@@H](C)C(=O)N[C@@H](Cc1ccc(CNC(=O)COCCOCCNC(=O)COCCOCCNC(=O)COCCOCCNC(=O)CC[C@H](NC(=O)CCCCCCCCCCCCCCCCC(=O)O)C(=O)O)cc1)C(=O)N[C@@H](CC(=O)O)C(=O)N[C@@H](Cc1ccccc1)C(=O)N[C@H](C(=O)N[C@@H](CCC(N)=O)C(=O)N[C@@H](Cc1c[nH]c2ccccc12)C(=O)N[C@@H](CC(C)C)C(=O)N[C@@H](CC(C)C)C(=O)N[C@@H](CC(=O)O)C(=O)N[C@H](C(N)=O)[C@@H](C)O)C(C)C [TP678] (H-H[Aib]QGTFTSDYSKYLDARAA[Phe(4-CH2NH2)]([AEEA-AEEA-AEEA-γGlu-C18 diacid])DFVQWLLDT-NH2; N-terminus assumed)
> 8.30 | 1.4 | > 8.30 | – | CC(C)C[C@H](NC(=O)[C@H](Cc1ccc(O)cc1)NC(=O)[C@H](CCCCN)NC(=O)[C@H](CO)NC(=O)[C@H](Cc1ccc(O)cc1)NC(=O)[C@H](CC(=O)O)NC(=O)[C@H](CO)NC(=O)[C@@H](NC(=O)[C@H](Cc1ccccc1)NC(=O)[C@@H](NC(=O)CNC(=O)[C@H](CCC(N)=O)NC(=O)C(C)(C)NC(=O)[C@@H](N)Cc1c[nH]cn1)[C@@H](C)O)[C@@H](C)O)C(=O)N[C@@H](CC(=O)O)C(=O)N[C@@H](C)C(=O)N[C@@H](CCCNC(=N)N)C(=O)N[C@@H](C)C(=O)N[C@@H](C)C(=O)N[C@@H](CCCCNC(=O)COCCOCCNC(=O)COCCOCCNC(=O)CC[C@H](NC(=O)CCCCCCCCCCCCCCCCC(=O)O)C(=O)O)C(=O)N[C@@H](CC(=O)O)C(=O)N[C@@H](Cc1ccccc1)C(=O)N[C@H](C(=O)N[C@@H](CCC(N)=O)C(=O)N[C@@H](Cc1c[nH]c2ccccc12)C(=O)N[C@@H](CC(C)C)C(=O)N[C@@H](CCS(C)(=O)=O)C(=O)N[C@@](C)(CC(=O)O)C(=O)N[C@H](C(=O)O)[C@@H](C)O)C(C)C [TP735] (H-H[Aib]QGTFTSDYSKYLDARAAK([AEEA-AEEA-γGlu-C18 diacid])DFVQWL[Met(O2)][αMeD]T-OH; N-terminus assumed)
> 8.30 | 2.7 | > 8.30 | – | CC(C)C[C@H](NC(=O)[C@H](Cc1ccc(O)cc1)NC(=O)[C@H](CCCCN)NC(=O)[C@H](CO)NC(=O)[C@H](Cc1ccc(O)cc1)NC(=O)[C@H](CC(=O)O)NC(=O)[C@H](CO)NC(=O)[C@@H](NC(=O)[C@H](Cc1ccccc1)NC(=O)[C@@H](NC(=O)CNC(=O)[C@H](CCC(N)=O)NC(=O)C(C)(C)NC(=O)[C@@H](N)Cc1c[nH]cn1)[C@@H](C)O)[C@@H](C)O)C(=O)N[C@@H](CC(=O)O)C(=O)N[C@@H](C)C(=O)N[C@@H](CCCNC(=N)N)C(=O)N[C@@H](C)C(=O)N[C@@H](C)C(=O)N[C@@H](CCCCNC(=O)COCCOCCNC(=O)COCCOCCNC(=O)CC[C@H](NC(=O)CCCCCCCCCCCCCCC(=O)O)C(=O)O)C(=O)N[C@@H](CC(=O)O)C(=O)N[C@@H](Cc1ccccc1)C(=O)N[C@H](C(=O)N[C@@H](CCC(N)=O)C(=O)N[C@@H](Cc1c[nH]c2ccccc12)C(=O)N[C@@H](CC(C)C)C(=O)N[C@@H](CCS(C)(=O)=O)C(=O)N[C@@H](CCC(=O)N[C@H](C(N)=O)[C@@H](C)O)C(=O)O)C(C)C [TP826] (H-H[Aib]QGTFTSDYSKYLDARAAK([AEEA-AEEA-γGlu-C16 diacid])DFVQWL[Met(O2)][γGlu]T-NH2)

The next lines start with the molecule.

SMILES | pEC50 (human GLP1R) | hGCGR/hGLP1R (hTone) (human GCGR) | pEC50 (human GCGR; [1]) | pEC50 (human GCGR; cells expressing human GCGR, cAMP production, buffer with or without 20% human serum (not stated which), read-out: GCGR EC50 human)
CC(C)C[C@H](NC(=O)[C@H](Cc1ccc(O)cc1)NC(=O)[C@H](CCCCN)NC(=O)[C@H](CO)NC(=O)[C@H](Cc1ccc(CNC(=O)COCCOCCNC(=O)COCCOCCNC(=O)CC[C@H](NC(=O)CCCCCCCCCCCCCCCCC(=O)O)C(=O)O)cc1)NC(=O)[C@H](CC(=O)O)NC(=O)[C@H](CO)NC(=O)[C@@H](NC(=O)[C@H](Cc1ccccc1)NC(=O)[C@@H](NC(=O)CNC(=O)[C@H](CCC(N)=O)NC(=O)C(C)(C)NC(=O)[C@@H](N)Cc1c[nH]cn1)[C@@H](C)O)[C@@H](C)O)C(=O)N[C@@H](CC(=O)O)C(=O)N[C@@H](C)C(=O)N[C@@H](CCCNC(=N)N)C(=O)N[C@@H](C)C(=O)N[C@@H](C)C(=O)N[C@@H](CCC(N)=O)C(=O)N[C@@H](CC(=O)O)C(=O)N[C@@H](Cc1ccccc1)C(=O)N[C@H](C(=O)N[C@@H](CCC(N)=O)C(=O)N[C@@H](Cc1c[nH]c2ccccc12)C(=O)N[C@@H](CC(C)C)C(=O)N[C@@H](CCS(C)(=O)=O)C(=O)N[C@@](C)(CC(=O)O)C(=O)N[C@H](C(N)=O)[C@@H](C)O)C(C)C [TP624] (H-H[Aib]QGTFTSD[Phe(4-CH2NH2)]([AEEA-AEEA-γGlu-C18 diacid])SKYLDARAAQDFVQWL[Met(O2)][αMeD]T-NH2; N-terminus assumed) | > 8.30 | 1.1 | > 8.30 | –
CC(C)C[C@H](NC(=O)[C@H](Cc1ccc(O)cc1)NC(=O)[C@H](CCCCN)NC(=O)[C@H](CO)NC(=O)[C@H](Cc1ccc(O)cc1)NC(=O)[C@H](CC(=O)O)NC(=O)[C@H](CO)NC(=O)[C@@H](NC(=O)[C@H](Cc1ccccc1)NC(=O)[C@@H](NC(=O)CNC(=O)[C@H](CCC(N)=O)NC(=O)C(C)(C)NC(=O)[C@@H](N)Cc1c[nH]cn1)[C@@H](C)O)[C@@H](C)O)C(=O)N[C@@H](CC(=O)O)C(=O)N[C@@H](C)C(=O)N[C@@H](CCCNC(=N)N)C(=O)N[C@@H](C)C(=O)N[C@@H](C)C(=O)N[C@@H](CCC(N)=O)C(=O)N[C@@H](CC(=O)O)C(=O)N[C@@H](Cc1ccccc1)C(=O)N[C@H](C(=O)N[C@@H](CCC(N)=O)C(=O)N[C@@H](Cc1c[nH]c2ccccc12)C(=O)N[C@@H](CC(C)C)C(=O)N[C@@H](CCS(C)(=O)=O)C(=O)N[C@@H](CCCCNC(=O)COCCOCCNC(=O)COCCOCCNC(=O)CC[C@H](NC(=O)CCCCCCCCCCCCCCCCCCC(=O)O)C(=O)O)C(=O)N[C@H](C(N)=O)[C@@H](C)O)C(C)C [TP603] (H-H[Aib]QGTFTSDYSKYLDARAAQDFVQWL[Met(O2)]K([AEEA-AEEA-γGlu-C20 diacid])T-NH2; N-terminus assumed) | > 8.30 | 1.6 | > 8.30 | –
CC(C)C[C@H](NC(=O)[C@H](Cc1ccc(O)cc1)NC(=O)[C@H](CCCCN)NC(=O)[C@H](CO)NC(=O)[C@H](Cc1ccc(O)cc1)NC(=O)[C@H](CC(=O)O)NC(=O)[C@H](CO)NC(=O)[C@@H](NC(=O)[C@H](Cc1ccccc1)NC(=O)[C@@H](NC(=O)CNC(=O)[C@H](CCC(N)=O)NC(=O)C(C)(C)NC(=O)[C@@H](N)Cc1c[nH]cn1)[C@@H](C)O)[C@@H](C)O)C(=O)N[C@@H](CC(=O)O)C(=O)N[C@@H](C)C(=O)N[C@@H](CCCNC(=N)N)C(=O)N[C@@H](C)C(=O)N[C@@H](C)C(=O)N[C@@H](CCC(N)=O)C(=O)N[C@@H](CC(=O)O)C(=O)N[C@@H](Cc1ccccc1)C(=O)N[C@H](C(=O)N[C@@H](CCCCNC(=O)COCCOCCNC(=O)CC[C@H](NC(=O)CCCCCCCCCCCCCCCCC(=O)O)C(=O)O)C(=O)N[C@@H](Cc1c[nH]c2ccccc12)C(=O)N[C@@H](CC(C)C)C(=O)N[C@@H](CCS(C)(=O)=O)C(=O)N[C@@H](CC(=O)O)C(=O)N[C@H](C(N)=O)[C@@H](C)O)C(C)C [TP637] (H-H[Aib]QGTFTSDYSKYLDARAAQDFVK([AEEA-γGlu-C18 diacid])WL[Met(O2)]DT-NH2; N-terminus assumed) | > 8.30 | 1.8 | > 8.30 | –
CC(C)C[C@H](NC(=O)[C@H](Cc1ccc(O)cc1)NC(=O)[C@H](CCCCN)NC(=O)[C@H](CO)NC(=O)[C@H](Cc1ccc(O)cc1)NC(=O)[C@H](CC(=O)O)NC(=O)[C@H](CO)NC(=O)[C@@H](NC(=O)[C@H](Cc1ccccc1)NC(=O)[C@@H](NC(=O)CNC(=O)[C@H](CCC(N)=O)NC(=O)C(C)(C)NC(=O)[C@@H](N)Cc1c[nH]cn1)[C@@H](C)O)[C@@H](C)O)C(=O)N[C@@H](CC(=O)O)C(=O)N[C@@H](C)C(=O)N[C@@H](CCCNC(=N)N)C(=O)N[C@@H](C)C(=O)N[C@@H](C)C(=O)N[C@@H](CCC(N)=O)C(=O)N[C@@H](Cc1ccc(CNC(=O)COCCOCCNC(=O)COCCOCCNC(=O)CC[C@H](NC(=O)CCCCCCCCCCCCCCCCC(=O)O)C(=O)O)cc1)C(=O)N[C@@H](Cc1ccccc1)C(=O)N[C@H](C(=O)N[C@@H](CCC(N)=O)C(=O)N[C@@H](Cc1c[nH]c2ccccc12)C(=O)N[C@@H](CC(C)C)C(=O)N[C@@H](CCS(C)(=O)=O)C(=O)N[C@@](C)(CC(=O)O)C(=O)N[C@H](C(N)=O)[C@@H](C)O)C(C)C [TP634] (H-H[Aib]QGTFTSDYSKYLDARAAQ[Phe(4-CH2NH2)]([AEEA-AEEA-γGlu-C18 diacid])FVQWL[Met(O2)][αMeD]T-NH2) | > 8.30 | 1.6 | > 8.30 | –
